The source of these data is ChEMBL document CHEMBL1139248 (Bioorg Med Chem Lett, 2009).

In experiment [1] the target is T1, Calcitonin gene-related peptide type 1 receptor (Homo sapiens, UniProt O60894+Q16602). Briefly: biochemical. It counts as cell-based, HEK293.
Description: Displacement of [125I]hCGRP from human CGRP receptor expressed in HEK293 cells coexpressing RAMP1
Experiment [2] concerns the target T1, Calcitonin gene-related peptide type 1 receptor. Description: Antagonistic activity at human CGRP receptor expressed in HEK293 cells coexpressing RAMP1 assessed as inhibition of CGRP-induced cAMP production. It counts as functional, cell-based. Background: cAMP levels reflect the balance of adenylyl cyclase and phosphodiesterase activity.
Experiment [3] has the same target. It counts as functional, cell-based, HEK293.

T1 sequence (Q16602 whole entry, one chain of several): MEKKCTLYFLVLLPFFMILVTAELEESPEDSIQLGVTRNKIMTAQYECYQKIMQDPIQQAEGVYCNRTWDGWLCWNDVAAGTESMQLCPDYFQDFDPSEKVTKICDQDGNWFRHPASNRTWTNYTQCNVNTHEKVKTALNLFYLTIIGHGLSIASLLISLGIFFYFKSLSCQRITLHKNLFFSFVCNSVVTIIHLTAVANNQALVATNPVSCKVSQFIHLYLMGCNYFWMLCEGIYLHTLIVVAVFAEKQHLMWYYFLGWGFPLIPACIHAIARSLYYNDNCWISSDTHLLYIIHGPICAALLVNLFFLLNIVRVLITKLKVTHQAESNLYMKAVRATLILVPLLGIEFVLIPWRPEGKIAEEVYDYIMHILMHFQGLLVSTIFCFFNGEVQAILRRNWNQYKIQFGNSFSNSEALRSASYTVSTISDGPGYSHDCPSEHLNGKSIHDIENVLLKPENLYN

For the compound `O=C1CN(C2CCN(C(=O)N[C@@H]3N=C(c4ccccc4)c4ccccc4N(CC(F)(F)F)C3=O)CC2)C(=O)N1`, the Ki (in general, a dissociation constant, usually derived from enzyme kinetics or from competition with a known ligand) in experiment [1] came out at 520 nM. Still for that read-out and setting: the figure for `O=C(Cn1c(=O)n(-c2ccccn2)c2ccccc21)Nc1ccc2c(c1)C[C@@]1(C2)N=C(C2CC2)NC1=O` is 2600 nM; for `O=C(Cn1c(=O)n(-c2ccccn2)c2ccccc21)Nc1ccc2c(c1)CC1(C2)C(=O)Nc2ncccc21` (centres undefined) it is 3.7 nM. Take `O=C(Cn1c(=O)n(-c2ccncn2)c2ccccc21)Nc1ccc2c(c1)C[C@]1(C2)C(=O)Nc2ncccc21`: the Ki in experiment [1] was found to be 0.61 nM. Moreover, the IC50 (in general, the concentration that gives 50% inhibition) in experiment [2] is 1.6 nM; in experiment [3], 35 nM. As to `O=C(Cn1c(=O)n(-c2ccccn2)c2ccccc21)Nc1ccc2c(c1)C[C@@]1(C2)N=C(c2cccnc2)NC1=O`, the Ki in experiment [1] turned out to be 130 nM. On the same count and under the same terms, to `O=C(Cn1c(=O)n(-c2ccccn2)c2ccccc21)Nc1ccc2c(c1)C[C@@]1(C2)N=C(c2ccccc2)NC1=O` belongs 34 nM. With `CN1C(=O)NC(=O)[C@]12Cc1ccc(NC(=O)Cn3c(=O)n(C4CCSCC4)c4ccccc43)cc1C2`, the Ki in experiment [1] was 13 nM. The IC50 worked out at 27 nM in experiment [2] and 220 nM in experiment [3]. Taken in the same sequence, the figures for `O=C(CN1C(=O)C2(CCOCC2)c2ccccc21)Nc1ccc2c(c1)C[C@]1(C2)C(=O)Nc2ncccc21` were 1.7 nM, 5.7 nM and 39 nM. Taken in the same sequence, the figures for `O=C(Cn1c(=O)n(-c2ccccn2)c2ccccc21)Nc1ccc2c(c1)C[C@]1(C2)C(=O)Nc2ncccc21` were 2.3 nM, 8.6 nM and 420 nM. `O=C(Cn1c(=O)n(C2CCSCC2)c2ccccc21)Nc1ccc2c(c1)C[C@]1(C2)C(=O)Nc2ncccc21`: the Ki in experiment [1] turned out to be 0.87 nM. Moreover, the IC50 is 2.5 nM in experiment [2] and 24 nM in experiment [3]. Regarding `O=C(Cn1c(=O)n(-c2ccccn2)c2ccccc21)Nc1ccc2c(c1)C[C@@]1(C2)NC(=O)NC1=O`, the Ki in experiment [1] was 230 nM. For `Cc1cc(C)c2c(c1)n(CC(=O)Nc1ccc3c(c1)C[C@]1(C3)C(=O)Nc3ncccc31)c(=O)n2CC(=O)N(C)C`, the Ki in experiment [1] came to 0.21 nM. Besides, the IC50 came out at 0.87 nM in experiment [2] and 4.1 nM in experiment [3]. On to `O=C1CC2(Cc3ccc(NC(=O)Cn4c(=O)n(-c5ccccn5)c5ccccc54)cc3C2)C(=O)N1` (centres undefined), for which, in experiment [1], the inhibition constant Ki turned out to be 96 nM. Regarding `O=C(Cn1c(=O)n2c3c(cccc31)NC(=O)C2)Nc1ccc2c(c1)C[C@]1(C2)C(=O)Nc2ncccc21`, in experiment [1], the Ki amounted to 0.04 nM. Besides, the IC50 in experiment [2] turned out to be 0.28 nM; in experiment [3] it was 0.62 nM. Take `CN1C(=O)NC(=O)[C@]12Cc1ccc(NC(=O)Cn3c(=O)n(C4CCOC4)c4ccccc43)cc1C2` (some centres undefined): in experiment [3], the IC50 was determined as 170 nM. Consider `O=C(Cn1c(=O)n(-c2ccccn2)c2ccccc21)Nc1ccc2c(c1)CC1(C2)C(=O)Nc2ccccc21` (centres undefined), for which the Ki in experiment [1] amounted to 520 nM.

Take `O=C(N[C@@H]1N=C(c2ccccc2)c2ccccc2N(CC(F)(F)F)C1=O)N1CCC(n2c(=O)[nH]c3ccccc32)CC1`: the Ki in experiment [1] is 2200 nM. The same measure, in the same setting: to `O=C(Cn1c(=O)n(-c2ccccn2)c2ccccc21)Nc1ccc2c(c1)CC1(CCNC1=O)C2` (centres undefined) belongs 270 nM.

For the compound `O=C(Cn1c(=O)n(C2CCOC2)c2ccccc21)Nc1ccc2c(c1)C[C@]1(C2)C(=O)Nc2ncccc21` (some centres undefined), the Ki in experiment [1] was determined as 1.2 nM. Moreover, the IC50 in experiment [2] was 5.2 nM; in experiment [3], 27 nM. Turning to `O=C(N[C@@H]1N=C(c2ccccc2)c2ccccc2N(CC(F)(F)F)C1=O)N1CCC(n2c(=O)[nH]c3ncccc32)CC1`, in experiment [1], the Ki is 22 nM. For the same compound, the IC50 in experiment [3] was determined as 730 nM.

For the compound `O=C(Cn1c(=O)n(-c2ccccn2)c2ccccc21)Nc1ccc2c(c1)CC1(CCCNC1=O)C2` (centres undefined), the Ki in experiment [1] is 2700 nM. For the compound `CN1C(=O)NC(=O)[C@]12Cc1ccc(NC(=O)CN3C(=O)C4(CCOCC4)c4ccccc43)cc1C2`, the Ki in experiment [1] was found to be 35 nM. The IC50 in experiment [2] worked out at 57 nM; in experiment [3], 160 nM. Taken in the same sequence, the figures for `CN1C(=O)NC(=O)[C@]12Cc1ccc(NC(=O)Cn3c(=O)n(-c4ccncn4)c4ccccc43)cc1C2` were 16 nM, 10 nM and 74 nM.
